Experiment [1] relates to BGC-823. The experiment can be described thus: Growth inhibition of human BGC823 cells at 5 uM after 72 hrs by MTT assay relative to control. As to conditions: BGC-823, 72 h, read-out: GI. In kind it is functional. Background: Formazan colour is commonly taken as a measure of viable cells.
The test system of experiment [2] is BGC-823. The experiment can be described thus: Growth inhibition of human BGC823 cells at 10 uM after 72 hrs by MTT assay relative to control. In kind it is functional. Particulars: BGC-823, 72 h, read-out: GI.
The test system of experiment [3] is BGC-823. Nature of the experiment: Growth inhibition of human BGC823 cells at 50 uM after 72 hrs by MTT assay relative to control. In kind it is functional. As to conditions: BGC-823, 72 h, read-out: GI.
Experiment [4] concerns BGC-823. Nature of the experiment: Growth inhibition of human BGC823 cells at 100 uM after 72 hrs by MTT assay relative to control. In kind it is functional. As to conditions: BGC-823, 72 h, read-out: GI.
Experiment [5] relates to BGC-823. The experiment can be described thus: Induction of apoptosis in human BGC823 cells assessed as increase in DNA fragmentation at 100 uM after 48 hrs. In kind it is functional, cell-based.
Experiment [6] concerns BGC-823. Nature of the experiment: Induction of apoptotic bodies in human BGC823 cells at 50 uM after 48 hrs. In kind it is functional, cell-based.
The subject of experiment [7] is BGC-823. Nature of the experiment: Effect on cell morphology in human BGC823 cells assessed as chromosomal condensations at 50 uM. In kind it is functional, cell-based.
For experiment [8], the system named is BGC-823. Nature of the experiment: Induction of apoptosis in human BGC823 cells assessed as increase in DNA fragmentation at 50 uM after 48 hrs. In kind it is functional, cell-based.
For experiment [9], the system named is BGC-823. Nature of the experiment: Induction of apoptosis in human BGC823 cells at 100 uM after 12 hrs by flow cytometry. In kind it is functional.
The test system of experiment [10] is BGC-823. The experiment can be described thus: Induction of apoptosis in human BGC823 cells at 100 uM after 24 hrs by flow cytometry. In kind it is functional. (Flow cytometry measures light scatter and fluorescence of single cells or particles in a stream.)
Experiment [11] has as its system BGC-823. The experiment can be described thus: Induction of apoptosis in human BGC823 cells at 100 uM after 36 hrs by flow cytometry. In kind it is functional.
Experiment [12] relates to BGC-823. Nature of the experiment: Induction of apoptosis in human BGC823 cells at 100 uM after 48 hrs by flow cytometry. In kind it is functional.
The test system of experiment [13] is BGC-823. Nature of the experiment: Induction of apoptosis in human BGC823 cells at 20 uM after 12 hrs by flow cytometry. In kind it is functional.
Experiment [14] has as its system BGC-823. Nature of the experiment: Induction of apoptosis in human BGC823 cells at 20 uM after 24 hrs by flow cytometry. In kind it is functional.
The subject of experiment [15] is BGC-823. The experiment can be described thus: Induction of apoptosis in human BGC823 cells at 20 uM after 36 hrs by flow cytometry. In kind it is functional.
The test system of experiment [16] is BGC-823. Nature of the experiment: Induction of apoptosis in human BGC823 cells at 20 uM after 48 hrs by flow cytometry. In kind it is functional.

Active and inactive are the calls of the source. No cut-off for these calls is given here.

For `CC[C@H](CC[C@@H](C)[C@H]1CC[C@H]2[C@@H]3CC=C4C[C@@H](O)CC[C@]4(C)[C@H]3CC[C@]12C)C(C)C` [BETA-SITOSTEROL], in the experiment with BGC-823 [1], the inhibition of growth at 5 µM was 0.4%. In addition, the inhibition of growth at 10 µM in the experiment on BGC-823 [2] was 8.8%. For the same compound, the inhibition of growth at 50 µM with BGC-823 [3] worked out at 15.6%. Moreover, the inhibition of growth at 100 µM in the experiment on BGC-823 [4] came to 20.4%.

For `O=C(O)c1cc(O)c(O)c(O)c1` [GALLIC ACID], the inhibition of growth at 5 µM with BGC-823 [1] amounted to 6.7%. In addition, the inhibition of growth at 10 µM with BGC-823 [2] turned out to be 10.2%. Moreover, in the experiment with BGC-823 [3], the inhibition of growth at 50 µM worked out at 16.7%. Besides, in the experiment with BGC-823 [4], the inhibition of growth at 100 µM is 22.5%.

As to `COc1c(O)cc2c(c1O)[C@@H]1O[C@H](CO)[C@@H](O)[C@H](O)[C@H]1OC2=O` [BERGENIN], in the experiment on BGC-823 [1], the inhibition of growth at 5 µM was -0.8%. Besides, the inhibition of growth at 10 µM in the experiment with BGC-823 [2] is 2.2%. Besides, the inhibition of growth at 50 µM in the experiment with BGC-823 [3] was determined as 6.1%. Also, in the experiment with BGC-823 [4], the inhibition of growth at 100 µM came out at 10.8%.

With `O=c1c(O)c(-c2ccc(O)c(O)c2)oc2cc(O)cc(O)c12` [QUERCETIN], the result in the experiment on BGC-823 [5], with BGC-823 [6], with BGC-823 [7] and in the experiment on BGC-823 [8] was Active. Further, the inhibition of growth at 5 µM with BGC-823 [1] is 7.5%. The inhibition of growth at 10 µM in the experiment on BGC-823 [2] stood at 11%. In addition, in the experiment on BGC-823 [3], the inhibition of growth at 50 µM worked out at 22.4%. Further, in the experiment with BGC-823 [4], the inhibition of growth at 100 µM is 39.3%. Besides, the Activity with BGC-823 [9] stood at 5.02%; in the experiment with BGC-823 [10] it was 11.82%; with BGC-823 [11] it was 10.19%; in the experiment with BGC-823 [12], 10.23%.

On to `CCCCCCCCCCCCCCCCCCCCCCCCCCCCCCC` [HENTRIACONTANE], for which the inhibition of growth at 5 µM in the experiment with BGC-823 [1] came out at 4.5%. In addition, the inhibition of growth at 10 µM with BGC-823 [2] was found to be 3.9%. Besides, the inhibition of growth at 50 µM in the experiment with BGC-823 [3] came out at 7%. In addition, the inhibition of growth at 100 µM in the experiment with BGC-823 [4] stood at 10.1%.

Consider `CCCCCCCCCCCCCCCCCCCCCCCCCCCCC` [NONACOSANE], for which, in the experiment with BGC-823 [1], the inhibition of growth at 5 µM was -0.9%. The inhibition of growth at 10 µM in the experiment on BGC-823 [2] was -5.2%. For the same compound, the inhibition of growth at 50 µM in the experiment on BGC-823 [3] is -5.6%. Also, the inhibition of growth at 100 µM in the experiment on BGC-823 [4] is -6.6%.

On to `C[C@@H]1O[C@@H](Oc2c(-c3ccc(O)c(O)c3)oc3cc(O)cc(O)c3c2=O)C(O)[C@H](O)C1O` (single isomer, unassigned) [QUERCITRIN], for which the inhibition of growth at 5 µM in the experiment on BGC-823 [1] was 0.2%. Further, the inhibition of growth at 10 µM in the experiment on BGC-823 [2] was 3.8%. For the same compound, the inhibition of growth at 50 µM in the experiment on BGC-823 [3] turned out to be 5.2%. The inhibition of growth at 100 µM in the experiment on BGC-823 [4] came out at 10.6%.

In the case of `CC[C@@]1(O)C(=O)OCc2c1cc1n(c2=O)Cc2cc3cc(O)ccc3nc2-1` [HYDROXYCAMPTOTHECIN], the Activity in the experiment on BGC-823 [13] is recorded as 3.72%; in the experiment on BGC-823 [14] it was 4.78%; with BGC-823 [15] it was 13.2%; in the experiment with BGC-823 [16], 6.47%.

On to `O=c1c(O[C@@H]2O[C@H](CO)C(O)[C@H](O)[C@H]2O)c(-c2ccc(O)c(O)c2)oc2cc(O)cc(O)c12` (single isomer, unassigned) [ISOQUERCETIN], for which the inhibition of growth at 5 µM with BGC-823 [1] came out at 1.5%. Moreover, the inhibition of growth at 10 µM in the experiment on BGC-823 [2] turned out to be 8.4%. Also, the inhibition of growth at 50 µM in the experiment with BGC-823 [3] came to 9.2%. Further, the inhibition of growth at 100 µM in the experiment on BGC-823 [4] is 12.1%.

These data come from ChEMBL document CHEMBL1141580, “Studies on the chemical constituents and anticancer activity of Saxifraga stolonifera (L) Meeb” (2008).
